Test results from paper PMC4108065, “Inflammation and pancreatic cancer: molecular and functional interactions between S100A8, S100A9, NT-S100A8 and TGFβ1” (Cell Communication and Signaling : CCS, 2014).

Legend:
BxPC3 EMT gene mRNA = assay: Real time PCR for EMT markers, BxPC3; format: cell-based, human; conditions: BxPC3, 72 hours
Procedure: BxPC3 and MiaPaCa2 cells (300 × 10^3) were seeded in six well dishes for 24 hours in their complete media. Cells remained non-stimulated (negative control) or were stimulated with 10 nM S100A8, 10 nM S100A9 and 50 nM NT-S100A8, alone or combined with 0.02 ng/ml TGFβ1, for 72 hours. Following stimulation, the cells were collected with 0.25% trypsin (1 mM EDTA) and centrifuged for 10 min at 4,000 rpm. Total RNA was extracted from cells using the High Pure RNA isolation kit (Roche, Monza, Italy), and reverse transcription was performed using 200 ng of total RNA, M-MLV Transcriptase and 250 μM random primers (Invitrogen S.R.L.). Quantitative Real-Time PCR analysis for CDH1 (E-cadherin), CDH2 (N-cadherin), SNAI1 (Snail), SNAI2 (Slug), TWIST1 (Twist), ZEB1, ZEB2, and B2M (β2-micro-globulin) were performed with the LightCycler 480 Real-Time System (Roche Diagnostics, Mannheim, Germany). The primer sequences (shown in Additional file 10: Table S2) and the respective probes were designed using the Universal ProbeLibrary (Roche) and ProbeFinder software (http://www.roche-applied-science.com/). Experimental procedures followed the standard protocol using the LightCycler 480 Probes Master (Roche). β2-microglobulin (B2M) was included as a housekeeping gene control. […]

[1] = S100A8 proteolysis assay in Capan1 conditioned media (MALDI-TOF/MS); format: in vitro ADME, human; conditions: 3 μM S100A8, Capan1 conditioned medium, 24 hours at 37°C, MALDI-TOF/MS low molecular weight spectra
Procedure: To obtain BxPC3 and Capan1 conditioned media (CM), 400,000 cells were cultured (75 cm^2 flasks) for 96 hours in RPMI supplemented with 1% FCS and 0.1% gentamycin. In parallel, Ukrain (Nowicky Pharma, Wien, Austria) treated Capan1 CM were obtained as above, the difference being that Ukrain was added 24 hours after cells had been seeded at the final concentration of 5 μM. Complete culture media maintained in a cell culture incubator for 96 hours (negative control), Capan1 and Ukrain-treated Capan1 CM were centrifuged at 1,500 rpm for 10 min, and then immediately mixed with 3 μM S100A8 or 2.5 μM S100A9 (ProSpec-Tany TechnoGene, Ness Ziona, Israel) and maintained at 37°C overnight before MALDI-TOF/MS analyses. Complete culture media, BxPC3 and Capan1 CM, treated as described above, were incubated at 37°C with 200 μM of the S100A8 1–19 N-terminal aminoacid sequence (NT-S100A8) (Primm, Milano, Italy) for 1, 2, 3, 4, 5, 6, 12 and 24 hours before MALDI-TOF/MS analyses. At least three independent sets of experiments were performed for both assays.
Cell culture media were first desalted and purified by ZipTip C18 pipette tips, following the procedure described in the ZipTip user’s guide. […]

| Substance | Twist median fold increase (BxPC3 EMT gene mRNA; 0.02 ng/ml TGFβ1, RT-PCR, with respect to control cells) [fold] | Twist expression (BxPC3 EMT gene mRNA; 10 nM, levels comparable with those of TGFβ1, Kruskal-Wallis p = 0.018) | fragmentation of S100A8 in conditioned medium [1] |
| --- | --- | --- | --- |
| TGFβ1: transforming growth factor beta 1 (ProSpec-Tany TechnoGene) | 6.32 | – | – |
| S100A8: inflammatory calcium binding protein S100A8 (ProSpec-Tany TechnoGene) | – | significantly increased | a new peptide was found at 2280 m/z |
